From patent US20240366555A1, “SELECTIVE MTORC2 INHIBITOR AND USES THEREOF” (ALIAD BIOPHARMA, priority 2021, published 2024) come the findings set out here.

Where only a bound is given, the exact number is not on record here.

The test system of test [1] is mTORC2 signaling (FHRE dependent gene expression). Kind of test: FHRE-luciferase reporter analysis in A549. Type of test: cell-based, human. Particulars: A549 cells, treated for 24 hours; FIG. 7d. The source says:
mTORC2 activates SGK3, and SGK3 phosphorylates Fox03a, allowing Fox03a to remain in the cytoplasm. When mTORC2 is inhibited, Fox03a is dephosphorylated and translocated to the nucleus, and in the nucleus, it binds to FHRE located in a gene promoter to induce gene expression. Therefore, the change in the intracellular location of Fox03a and FHRE dependent gene expression become indicators for evaluating mTORC2 activity. In order to evaluate the effect of norathyriol on the mTORC2 activity, norathyriol was treated to A549, and then expression of an FHRE-synthetic luciferase gene was investigated by luciferase reporter analysis.
Specifically, A549 cells of 2×10^5 were seeded in a 35 mm culture dish and cultured for 1 day, and then a 2.5 μg FHRE-Luc plasmid and a 0.1 μg renilla luciferase plasmid were introduced by a transfection method using Lipofectamine LTX reagent (Thermofisher). After 18 hours, norathyriol was treated for 24 hours. Luciferase assay was performed with Dual Luciferase Reporter Assay System (Promega) according to the manufacturer's instructions.

In the next test the target is mTORC2 (Homo sapiens, UniProt P42345). Kind of test: In vitro mTORC2 kinase assay (GST-Akt Ser473 phosphorylation, immunoblot). The note with it: for reduction of GST-Akt Ser473 phosphorylation by mTORC2: FIG. 6a. Set-up: mTORC was isolated by co-immunoprecipitation using Flag antibody; made in house; host or cells: HEK 293T transfected with Flag-mLST8. Type of test: biochemical. On the procedure: After introducing Flag-mLST8 into a human cell line 293T, mTORC was isolated by co-immunoprecipitation using Flag antibody. In the in vitro mTORC2 kinase assay, the activity of the isolated mTORC2 was evaluated by measuring phosphorylation of GST-Akt Ser473, which is a selective substrate of mTORC2 by immunoblot analysis. In the control group in which Flag-mLST8 was not introduced, GST-Akt Ser473 phosphorylation was almost not measured. […] Therefore, it was judged that GST-Akt Ser473 phosphorylation measured in the in vitro mTORC2 kinase assay was generated by mTORC2. In order to evaluate the inhibitory effect of norathyriol and athyriol on mTORC2 activity, norathyriol or athyriol was pretreated for 15 minutes, and then in vitro mTORC2 kinase assay was carried out.
More specifically, the HEK 293T cells were cultured in a DMEM culture medium in which 10% heat inactivated FBS+1× Glutamax was added. 8×10^5 HEK 293T cells were seeded in a 100 mm culture dish, and then they were cultured for 1 day. After mixing 42 μl Lipofectamine, 21 μl plus reagent, and 21 μg Flag-mLST8 plasmid DNA to 1 ml OPTI-MEM, it was shaken at a room temperature for 25 minutes to prepare a transfection DNA mixture. The transfection DNA mixture was slowly treated on the cells drop by drop, and after culturing for 5 hours, the culture medium was replaced with a new culture medium. After additional culturing for 48 hours, the cells were […] with CHAPS buffer (50 mM HEPES (pH7.4), 100 mM NaCl, 2 mM EDTA, 0.3% CHAPS, 10 mM sodium pyrophosphate, 10 mM sodium β-glycerophosphate, 1 mM PMSF, 1 μg/ml leupeptin, 1 μg/ml pepstatin A, 10 nM aprotinin, 1 mM Na3VO4, 10 nM calyculin A), and centrifuged at 4° C. at 13,000 rpm for 10 minutes to obtain the supernatant and acquire cell lysate. The protein concentration of the cell lysate was determined with BCA protein assay kit (Thermo Fisher Scientific). After adding anti-Flag M2 affinity gel (50% slurry, Sigma) of 30 μl to the cell lysate of 1 mg, it was shaken at 4° C. for 3 hours. After that, affinity gel was washed with CHAPS buffer 3 times and kinase buffer (50 mM HEPES (pH7.5), 2 mM DTT, 10 mM MnCl2, 10 mM MgCl2) for washing once. After adding kinase buffer [-substrate-ATP] […] After that, kinase buffer (50 mM HEPES (pH7.5), 2 mM DTT, 10 mM MgCl2, 10 mM MnCl2, 1 mM ATP, 500 ng GST-AKT, 10 nM calyculin A) of 10 μl was added and shaken at 30° C. for 45 minutes to progress a kinase reaction. […] Ser473 phosphorylation of GST-AKT, which is a substrate of mTORC2, was measured by performing immunoblot analysis using AKT antibody (#4691, Cell signaling) and phospho Ser473 AKT antibody (#4060, Cell signalig). In order to measure the mTORC2 activity inhibitory effect by the compound, both the kinase buffer [-substrate-ATP] and the kinase buffer included the compound.
For orientation: Immunoblotting shows a protein as a band on a membrane.

In a further test the test system is normal mice. Description: 3 chamber test in normal mice. The format is in vivo. The note with it: 5 mg/kg, sociability measurement-2 session, FIG. 14b. On the procedure:
3-chamber test is a test to confirm sociability, social cognition, and social sexual preference, and it was tested by composing sessions 1 and 2. The experimental site was consisted of three chambers made of transparent acrylic walls with a small door and each chamber was length 50 cm×width 100 cm×height 50 cm. Through a cylindrical cage, the sense of smell and minimal contact of the test mice to the unfamiliar mouse were allowed. Prior to the test, the test mice were placed in an intermediate chamber and adapted for 5 minutes with both doors closed. The test was performed by dividing into sessions I and II. In the 3-chamber sociability measurement-1 session, an unfamiliar mouse met first was placed in a transparent box located at one end of the three rooms, and an empty transparent box of the same size was placed in the room located at the other side, and the target mouse was placed in the middle room, and then the time searching toward the counterpart within the social interaction zone was measured.
In order to verify this possibility, the efficacy of athyriol on memory ability and sociability of normal animals was investigated. […]

For the molecule `O=c1c2cc(O)c(O)cc2oc2cc(O)cc(O)c12` [norathyriol, 1,3,6,7-tetrahydroxy-9H-xanthen-9-one], the “expression of the FHRE-synthetic luciferase gene” value in test [1] is reported as “increased by twice or more”. The “reduction of GST-Akt Ser473 phosphorylation by mTORC2” value at mTORC2 (5 μM) is no less than 20%; at mTORC2 (40 μM) it was 50%. The molecule further came in with an inhibition at 40 µM on mTORC2 (40 μM, FIG. 6b) of 46%. Besides, 40 µM corresponded to half-maximal inhibition on mTORC2 (in vitro mTORC2 kinase assay) (IC50).

Take `COc1cc(O)c2c(=O)c3cc(O)c(O)cc3oc2c1` [athyriol, 1,6,7-Trihydroxy-3-methoxy-9H-xanthen-9-on]: the “increase in ratio of searching time for familiar mice to searching time for unfamiliar mice compared to vehicle control” value in the test with normal mice amounted to 11%. Besides, at 20 µM the inhibition against mTORC2 (20 μM, FIG. 6b) was 59%. Moreover, on mTORC2 (40 μM, FIG. 6b), at 40 µM the inhibition was 67%.

For orientation: inhibition means how much of the control response was suppressed. Low readings indicate little suppression, high ones strong suppression. The IC50 is the concentration that gives 50% inhibition.
